Publication PMC10254444, “Targeting Myeloperoxidase Activity and Neutrophil ROS Production to Modulate Redox Process: Effect of Ellagic Acid and Analogues” (Molecules, 2023)

Assays:
[1] = DPPH radical scavenging assay
Experimental: The DPPH assay was performed according to the method developed by Brand-Williams et al., though slightly modified. A solution of 1 mM DPPH in absolute methanol was stirred for 40 min. Absorbance of the solution was adjusted to 0.650 ± 0.020 at 517 nm using fresh absolute methanol. For replicates, the DPPH assay was performed using a microplate reader. For this, 2 µL of EA taken as a standard or sample (EA analogue) were mixed with 198 µL of DPPH solution and incubated for 30 min in the dark covered with aluminum foil. When reacting with an antioxidant, the DPPH• radical is converted into DPPH, and its color changes from purple to yellow. The antioxidant effect may be easily evaluated by observing the decrease in visible absorption. The absorbance decrease was monitored at 510 nm for 30 min with a Multiskan Ascent 96-plate reader (ThermoLabsystem, Finland). A control consisted of 2 µL of DMSO in 198 µL of DPPH solution. A similar formula (Equation (1)) was applied to determine the DPPH radical-scavenging activity.

[2] = molecular target: T1, human myeloperoxidase (MPO) (Homo sapiens, UniProt P05164); test: MPO peroxidase activity, classical assay (Amplex Red); format: biochemical
T1 construct: purchased Calbiochem Millipore
T1 sequence (P05164 49-745): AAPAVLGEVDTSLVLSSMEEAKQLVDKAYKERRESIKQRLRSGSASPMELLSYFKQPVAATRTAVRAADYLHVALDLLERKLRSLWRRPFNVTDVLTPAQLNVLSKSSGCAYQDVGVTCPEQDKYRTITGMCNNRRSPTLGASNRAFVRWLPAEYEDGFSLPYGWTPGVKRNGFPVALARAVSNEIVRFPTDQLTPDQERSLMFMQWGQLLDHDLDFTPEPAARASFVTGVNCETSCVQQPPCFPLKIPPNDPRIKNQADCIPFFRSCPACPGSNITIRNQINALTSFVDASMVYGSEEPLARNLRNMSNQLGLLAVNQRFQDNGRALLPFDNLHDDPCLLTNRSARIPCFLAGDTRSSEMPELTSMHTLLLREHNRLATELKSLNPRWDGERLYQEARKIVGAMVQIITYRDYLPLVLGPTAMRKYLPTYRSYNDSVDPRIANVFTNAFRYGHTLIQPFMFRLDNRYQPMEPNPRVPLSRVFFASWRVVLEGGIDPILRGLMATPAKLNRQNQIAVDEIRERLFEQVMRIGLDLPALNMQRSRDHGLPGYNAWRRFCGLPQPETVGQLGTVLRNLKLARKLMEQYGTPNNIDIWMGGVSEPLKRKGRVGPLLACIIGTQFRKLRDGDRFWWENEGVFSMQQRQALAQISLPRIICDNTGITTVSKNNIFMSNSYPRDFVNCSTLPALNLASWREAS
Experimental: Measurement of the peroxidase activity of MPO was performed by a classical enzymatic assay and by SIEFED assay as described by Nyssen et al.. The MPO solution was prepared with purified human MPO in dilution buffer (PBS 20 mM at pH 7.4 with 5 g/L BSA and 0.1% Tween-20). The solutions of EA or analogue, at final concentrations ranging from 10^−8 M to 10^−5 M, were incubated for 10 min with human MPO at a final concentration of 5 mU/mL before further use. The revelation of MPO activity was performed by monitoring the enzyme-catalyzed oxidation of Amplex Red in the presence of H2O2 (10 μM) and nitrite (4.5 mM) in phosphate buffer at pH 7.4.
After incubation, mixtures containing 100 μL of EA/analogue or vehicle (DMSO) and MPO were loaded into wells of microtiter plates (transparent), and the peroxidase activity was measured by adding 10 μL sodium nitrite solution (4.5 mM, final concentration) and 100 μL of the reactional solution containing 10 µM H2O2 and 40 µM Amplex® Red (AR) in phosphate buffer (50 mM) at pH 7.4. The oxidation of AR into the fluorescent resorufin adduct (λexcitation = 544 nm; λemission = 590 nm) was monitored for 30 min at 37 °C with a fluorescent plate reader (Fluoroskan Ascent, Fisher Scientific, Hampton, NH, USA). To eliminate the possibility of the artifact reactions that might arise from MPO activity or its natural substrate (H2O2), the direct reaction of ellagic acid or an analogue with H2O2 was performed in phosphate buffer (PBS) without the addition of human MPO.

[3] = tested on: PMA-activated neutrophils; test: ROS production by PMA-activated neutrophils (L012 chemiluminescence); format: cell-based, equine
Experimental: Equine neutrophils were isolated from whole blood using EDTA disodium salt (1.6 mg/mL) as an anticoagulant. The blood was drawn from the jugular vein of healthy horses bred and fed under identical conditions without medical treatment. All the experiments were realized with the approval of the ethics committee of the Faculty of Veterinary Medicine of the University of Liege (agreement number 1474). Briefly, the neutrophils were isolated at room temperature (18–22 °C) by centrifugation (400× g; 45 min; 20 °C) on a discontinuous Percoll density gradient according to the method previously described. The cells were gently collected and washed with two volumes of physiological saline solution. After the supernatant removal, the cell pellets were re-suspended in 2 mL PBS and counted for further use.
The ROS produced by PMA-activated neutrophils were measured by L012-enhanced chemiluminescence (CL) under an adaptation of the method previously described by Benbarek et al. and Derochette et al.. Neutrophil suspensions were distributed in the wells (neutrophils/well, 143 μL PBS) of a 96-well microtiter plate (White Combiplate 8, Fisher Scientific) and incubated for 10 min at 37 °C with 2 μL of EA or analogue to reach final concentrations of 10^−8 M, 10^−7 M, 10^−6 M, and 10^−5 M. After incubation, 25 μL CaCl2 (10 mM) and 20 μL L-012 (10^−4 M) were added into the wells (final volume of 200 μL). […] A control was performed with neutrophils activated with PMA (positive Ctrl) in the presence of PBS instead of ellagic acid analogue. Another control was performed with PMA-activated neutrophils in the presence of the vehicle solution of ellagic acid or analogue (1% DMSO) (DMSO, final concentration) and was taken as 100% CL response. The negative control was performed with unstimulated neutrophils (NA) with the CL probe alone. The inhibition percentage was calculated using a similar formula (Equation (1)) as described above.

SMILES	DPPH inhibition percentage ([1]; at the highest concentration)	MPO inhibition, classical assay (in words) [2]	Inhibition of neutrophil ROS production (in words) [3]	Inhibition of neutrophil ROS production ([3]; highest concentration)	IC50 [1]
CN(C)C(=O)Oc1cc2c(=O)oc3c(OC(=O)N(C)C)c(OC(=O)N(C)C)cc4c(=O)oc(c1OC(=O)N(C)C)c2c34 [compound 6, Sevellagic acid]	−3%	lack of effect	less active than all the other tested compounds	58%	
CCOC1Oc2cc(C(=O)OC)cc(O)c2O1 (stereo not drawn) [compound 11, methyl 2-ethoxy-7-hydroxybenzo[d][1,3]dioxole-5-carboxylate]			good inhibitory effect		5.22 ± 0.05 µM
